Test system: Plasmodium falciparum (strain 3D7)
Test: Parasiticidal effect: level of parasitemia (percentage of MIRBCs) after bulk flow treatment of P. falciparum-infected human RBCs
Assay type: cell-based
Details: chloroquine 1 μM added immediately prior to flow treatment; PTNB mode 70 ps laser pulse; level of MIRBCs at 24 hours; FIG. 12c

## CCN(CC)CCCC(C)Nc1ccnc2cc(Cl)ccc12 (stereo not shown) [chloroquine]
  parasiticidal efficacy of PTNB mode compared with chloroquine: three-fold higher parasiticidal efficacy than chloroquine

Source: US20190345478A1, “T[…] AND SYSTEMS FOR DIAGNOSIS AND TREATMENT OF MALARIA” (WILLIAM MARSH RICE UNIVERSITY, priority 2012, published 2019)
